Series [1] concerns the target T1, recombinant human 5-HT6 receptor (Homo sapiens, UniProt P50406).
T1 construct: expressed in transfected cells
In words: Determination of Kb for 5-HT6 receptor (CHO cells, pCRE-Luc reporter, cAMP). The series is classed as cell-based. Conditions: 10 μM serotonin, luciferase reporter. The method, then:
Determination of Kb for 5-HT6 Receptor: A stable CHO cell line expressing recombinant human 5-HT6 receptor and pCRE-Luc reporter system was used for cell based assay. The assay offers a non-radioactive based approach to determine binding of a compound to GPCRs. In this specific assay, the level of intracellular cyclic AMP which is modulated by activation or inhibition of the receptor is measured. The recombinant cells harbor luciferase reporter gene under the control of cAMP response element. The above cells were plated in 96 well clear bottom white plates at a density of 5×10^4 cells/well using Hams F12 medium containing 10% fetal bovine serum (FBS) and incubated overnight at 37° C. and 5% CO2 followed by serum starvation for 18-20 hrs. Increasing concentrations of test compounds were added along with 10 μM serotonin in Opti-MEM to the cells. The incubation was continued at 37° C. in CO2 incubator for 4 hours. After 4 hours cells were lysed using lysis buffer and luciferase assay buffer was added to each well and counts per second were recorded using luminescence counter. From counts per second (CPS) obtained, percent binding was calculated for each well by taking 10 μM 5-HT as 100% bound and vehicle as 0% bound. The percent bound values were plotted against compound concentrations and data were analyzed using a nonlinear, iterative curve-fitting computer program of Graph pad Prism 4 software. The Kb values were calculated using concentration of the agonist used in the assay.
In general terms: A reporter such as luciferase makes a cellular process visible.

Series [2] is described as follows: Rodent pharmacokinetic study. It is filed as in vivo, male Wistar rats. Conditions: male, Wistar, plasma, rat. The method, then: Male Wistar rats (260±50 grams) were used as experimental animals. Animals were housed individually in polypropylene cage. Two days prior to study, male Wistar rats were anesthetized with isoflurane for surgical placement of jugular vein catheter. Rats were randomly divided for oral (3 mg/kg) and intravenous (1 mg/kg) dosing (n=3/group) and fasted overnight before oral dosing (p.o.). However, rats allocated to intravenous dosing food and water was provided ad libitum.
At pre-determined point, blood was collected through jugular vein and replenished with an equivalent volume of normal saline. Collected blood was transferred into a labeled eppendorf tube containing 10 μL, of heparin as an anticoagulant. Typically blood samples were collected at following time points: 0.08, 0.25, 0.5, 1, 2, 4, 6, 8, and 24 hours post dose. Blood was centrifuged at 4000 rpm for 10 minutes. Plasma was separated and stored frozen at −80° C. until analysis. The concentrations of the test compounds were quantified in plasma by qualified LC-MS/MS method using suitable extraction technique. The test compounds were quantified in the calibration range around 1-1000 ng/mL in plasma. Study samples were analyzed using calibration samples in the batch and quality control samples spread across the batch.
Pharmacokinetic parameters Cmax, AUC1, T1/2, Clearance and Bioavailability (F) were calculated by non-compartmental model using standard non-compartmental model by using Phoenix WinNonlin 6.2 or 6.4 version Software package.

Series [3] can be described thus: Rodent brain penetration study. The series is classed as in vivo, male Wistar rats. Conditions: male, Wistar, brain and plasma, po; rat, 3 mg/kg, p.o., brain-plasma ratio; read-out: Single dose rat brain penetration (Cb/Cp). As to the method:
Male Wistar rats (260±40 grams) were used as experimental animals. Three animals were housed in each cage. Animals were given water and food ad libitum throughout the experiment and maintained on a 12 hours light/dark cycle.
Brain penetration was determined in discrete manner in rats. One day prior to dosing day, male Wistar rats were acclimatized and randomly grouped according to their weight. At each time point (0.50, 1 and 2 hours) n=3 animals were used.
The test compounds were suitably preformulated and administered orally at (free base equivalent) 3 mg/kg. Blood samples were collected via cardiac puncture by using isoflurane anesthesia. The animals were sacrificed to collect brain tissue. Plasma was separated and brain samples were homogenized and stored frozen at −20° C. until analysis. The concentrations of the test compounds in plasma and brain were determined using LC-MS/MS method.
The test compounds were quantified in plasma and brain homogenate by qualified LC-MS/MS method using suitable extraction technique. The test compounds were quantified in the calibration range of 1-1000 ng/mL in plasma and brain homogenate. Study samples were analyzed using calibration samples in the batch and quality control samples spread across the batch. Extent of brain-plasma ratio (Cb/Cp) was calculated.

The nature of series [4]: Non-clinical toxicology, repeated dose toxicity study in rat. The note with it: rat, female rats. The series is classed as in vivo. As to the method:
(§1) The safety of the example 1 of instant invention and comparator example of U.S. Pat. No. 7,378,415 were evaluated in repeated dose toxicity study in rat.
(§2) Female rats were used as experimental animals for evaluating the toxicity profile of example 1 of instant invention and the comparator example of U.S. Pat. No. 7,378,415.
(§3) During the study, female rats were dosed at incremental doses for minimum of 4 days. Toxicity assessment was done on the mortality, clinical observation, change in the body weight, feed consumption, clinical and anatomical pathology. Systemic exposures were also estimated for both of the compounds. All quantitative variables are compared with control group using one-way ANOVA followed by Dunnet's post-hoc test on GraphPad Prism Software version 4, 2003.

The next series deals with Female rats. The description is as above. The series is classed as in vivo. Conditions: repeated dose toxicity. As to the method: as §1, §2, §3
Series [5] relates to extracellular levels of acetylcholine in ventral hippocampus. The series can be described thus: Acetylcholine modulation in ventral hippocampus (microdialysis). The series is classed as in vivo, male Wistar rats. Conditions: Example 1 10 mg/kg; for acetylcholine peak levels, % of pre-dose levels: p.o. in combination with donepezil 1 mg/kg, s.c. From the text: Four groups of male Wistar rats (240-300 g body weight) were stereotaxically implanted with a microdialysis guide cannula in ventral hippocampus (AP: −5.2 mm, ML: +5.0 mm, DV: −3.8 mm) under isoflurane anesthesia. Co-ordinates were taken according to atlas for the rat brain (Paxinos and Watson 2004) with reference points taken from bregma and vertical from the skull. […] After surgical recovery of 4-5 days, male Wistar rats were connected to dual quartz lined two-channel liquid swivel (Instech, UK) on a counter balance lever arm, which allowed unrestricted movements of the animal. […] On the day of study, probe was perfused with artificial cerebrospinal fluid (aCSF; NaCl 147 mM, KC13 mM, MgCl2 1 mM, CaCl2. 2H2O 1.3 mM, NaH2PO4.2H2O 0.2 mM and Na2HPO4.7H2O 1 mM, pH 7.2) at a flow rate of 1.5 μL/min and a stabilization period of 2 h was maintained. […] Dialysate samples were collected for an additional period of 4 h post treatment of example 1. Dialysates were stored below −50° C. prior to analysis. Acetylcholine in dialysate was quantified using LC-MS/MS method in the calibration range of 0.099 nmol/L-70.171 nmol/L. […] Incorrect probe placement was considered as criteria to reject the data from animal.

T1 sequence (P50406 whole entry): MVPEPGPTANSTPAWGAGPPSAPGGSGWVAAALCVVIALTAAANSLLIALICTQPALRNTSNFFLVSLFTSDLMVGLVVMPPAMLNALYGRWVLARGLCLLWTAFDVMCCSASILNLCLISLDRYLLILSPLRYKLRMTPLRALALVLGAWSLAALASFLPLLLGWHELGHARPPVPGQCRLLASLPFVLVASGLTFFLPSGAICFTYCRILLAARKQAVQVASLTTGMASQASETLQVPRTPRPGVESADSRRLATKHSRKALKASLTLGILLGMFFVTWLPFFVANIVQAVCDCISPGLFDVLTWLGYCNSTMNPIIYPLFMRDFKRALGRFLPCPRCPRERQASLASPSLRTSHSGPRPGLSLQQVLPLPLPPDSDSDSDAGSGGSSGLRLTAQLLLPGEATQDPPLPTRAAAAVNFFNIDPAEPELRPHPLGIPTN

A word on the AUC(0-t): it is the area under the concentration-time curve up to a stated or last time point. The low end stands for low exposure, the high end for high exposure. Broadly, the clearance is the rate of elimination divided by the concentration. Low values mean inefficient removal, high ones efficient removal. For orientation: half-life means how long it takes for the measured level to halve. Read a low half-life as fast loss. The bioavailability is the share of a dose that reaches the circulation, judged against a reference dose that is usually intravenous. What is called Cmax is the highest concentration seen after dosing. For orientation: NOAEL means the highest tested level that showed no adverse finding. Broadly, the AUC is concentration integrated over time. Regarding `Cl.O=S(=O)(c1ccccc1)c1ccc2c(c1)OCCN2C1CCNCC1F` (single isomer, unassigned; peak iii) [Example 1, 7-Phenylsulfonyl-4-(3-fluoropiperidin-4-yl)-3,4-dihydro-2H-benzo[1,4]oxazine hydrochloride (Peak III)], in series [1], the Kb came out at 0.04 nM. The exposure AUC(0-t) stood at 412 ± 37 ng·h/mL in series [2] (intravenous (bolus), 1 mg/kg) and 1000 ± 15 ng·h/mL in series [2] (oral (gavage), 3 mg/kg). For the same molecule, the clearance in series [2] (intravenous (bolus), 1 mg/kg) stood at 40 ± 3 mL/min/kg. The half-life in series [2] (intravenous (bolus), 1 mg/kg) is 4.5 ± 0.1 h; in series [2] (oral (gavage), 3 mg/kg), 5.6 ± 0.9 h. The bioavailability in series [2] (oral (gavage) 3 mg/kg vs intravenous 1 mg/kg, read-out: F (Bioavailability)) came out at 81 ± 1%. The Cmax in series [2] (oral (gavage), 3 mg/kg) stood at 84 ± 14 ng/mL; in series [4] (plasma, repeated dose toxicity study, read-out: Cmax (systemic exposure in toxicity study)), 2420 ng/mL. In addition, the Kp in series [3] turned out to be 0.78 ± 0.2. This molecule also registered an NOAEL at 4 days in series [4] (in vivo, 4-Day repeat tox) of 300 mg/kg. Also, the MTD in series [4] (in vivo, repeated incremental doses, read-out: Maximum Tolerated Dose) was not below 300 mg/kg. The area under the curve (AUC) in series [4] (plasma, repeated dose toxicity study, read-out: AUC (systemic exposure in toxicity study)) is 38100 ng·h/mL. The “Findings (mortality)” value with Female rats was “No death up”; in the series with Female rats (listed as example 1), “no deaths were observed at doses as high as 300 mg/kg”. Also, the “Mean area under the curve values (AUC) of percent change in acetylcholine” value is “significantly higher” in series [5] (p.o. + donepezil + memantine, compared to donepezil and memantine combination); “significantly higher” in series [5] (p.o. + donepezil, compared to donepezil 1 mg/kg, s.c. alone). Moreover, the “acetylcholine peak levels, % of pre-dose levels” value is 1445±247% in series [5]; 2822±415% in series [5] (s.c. and memantine 1 mg/kg).

The values above are taken from US10973831B2, “Fluoropiperidine compounds as pure 5-HT 6 receptor antagonists” (SUVEN LIFE SCIENCES LIMITED, priority 2017, dated 2021).
